Source: US12390467B2, “Necroptosis inducers or autophagy inhibitors or a combination thereof” (The University of Toledo, priority 2018, dated 2025)

What was measured:
Type in all cases: cell-based
[1] = system: MDA-MB231 (TNBC cell line); assay: MTT cell viability assay, MDA-MB231; details: Homo sapiens, MDA-MB-231, 72 h, read-out: IC50 ± SD, MDA-MB231
Method: (§1) The following cancer and non-cancer cell lines were used in the initial cytotoxicity screening of the TPH104 compounds: triple negative breast cancer (TNBC): MDA-MB468, MDA-MB 231, and BT-20; non-TNBC: MCF-7 and ZR-75-1; ovarian: Ov2008; prostate: DU145; colon: HCT-116, S1, and LOVO; lung: H460; normal kidney: HEK-293; normal breast: HMEC; and normal colon: CRL-1459. All cells were cultured in Dulbecco's modified Eagle medium (DMEM), supplemented with 10% fetal bovine serum (FBS), and 1% penicillin/streptomycin (P/S). Cells were allowed to grow as adherent monolayers in T25 flasks in a humidified incubator with 5% CO2 at 37° C. for a period of 24 h, unless otherwise specified for certain experiments.
The MTT assay was used to determine the cytotoxicity of all of the compounds. Briefly, in a 96-well flat-bottom cell culture plate, the cells were seeded at a density between 3-5×10^3 cells/well (180 μl in each well) and incubated for 24 h (a hemocytometer was used for cell counting). The next day, the cells were incubated with different concentrations of the nine compounds (0, 0.1, 0.3, 1, 3, 10, 30, and 100 μM) for 72 h. After 72 h, 20 μl of 5 mg/ml of 3-(4,5-dimethylthiazol-2-yl)-2,5-diphenyltetrazolium bromide (MTT) was added to the plate and incubated with the cells for 3 h at 37° C. In this experiment, the living cells will reduce the soluble MTT dye to non-soluble purple formazan crystals. Following incubation, the media containing MTT removed via suction and 100 μL of 100% dimethyl sulfoxide (DMSO) was added to dissolve the formazan crystals. Subsequently, the plate was shaken for 2 minutes and the absorbance was measured at a wavelength of 570 nm using a SpectraMax iD3 Multi-Mode Microplate Reader (Molecular Devices, Sunnyvale, CA). The IC50 values of each compound were calculated and used to determine the selectivity ratio (IC50 in normal cells/IC50 in cancer cells) of each compound as previously described. Based on the results obtained from these experiments, the compound TPH104, which had the lowest IC50 value, was selected for further experiments.

[2] = system: lung (H460), ovarian (OV2008), prostate (DU145), and colon (HCT-116, LOVO, S1); assay: MTT cytotoxicity screening, other cancer types; details: H460, OV2008, DU145, HCT-116, LOVO, less potently than in TNBC
Method: as §1
The MTT assay was used to determine the cytotoxicity of all of the compounds. […] Subsequently, the plate was shaken for 2 minutes and the absorbance was measured at a wavelength of 570 nm using a SpectraMax iD3 Multi-Mode Microplate Reader (Molecular Devices, Sunnyvale, CA). The IC50 values of each compound were calculated and used to determine the selectivity ratio (IC50 in normal cells/IC50 in cancer cells) of each compound as previously described. […]
Table 3 (FIG. 30)-Cytotoxicity screening of TPH104 compounds against Colon (HCT-116, LOVO and S1), Prostate (DU145), Ovarian (Ov 2008), and Lung (H460) cancer cell lines. Cell survival was determined using MTT assay as described. […]

[3] = system: MDA-MB231, MDA-MB468, and BT-20; assay: Cell colony formation assay; details: vs vehicle
Method: This assay was used to measure the size and rate of colony formation for TNBC cells, with or without TPH104, as previously reported. Briefly, in a 6-well cell culture plate, cells were seeded at a density of 250,000 cells/well and allowed to grow/attach overnight. The next day, the cells were incubated with different concentration of TPH104 (0.1, 1, or 10 μM) or vehicle and incubated for 12 h at 37° C. Following incubation, the cells were harvested, counted, and reseeded at a density of 500-800 cells/well (1 ml in each well), in a new 6-well plate, with complete medium for 10 days. The medium was changed every 2 days in order to prevent cell starvation. On the 10th day, the colonies were fixed with absolute methanol at room temperature for 30 minutes. Subsequently, cells were stained with 0.1% crystal violet dye (Sigma, USA) for an additional 30 minutes. Finally, the fixed and stained colonies were viewed, pictured (at 4, 10, and 20×) and counted using an EVOS-FLC microscope (Thermo Fisher Scientific, Wayne, MI, USA). The following equation was used to calculate the colony formation rate: Colony formation rate=number of colonies formed/number of seeded cells (500)×100% Trans-Well Migration Assay

[4] = system: LC3B-I, LC3B-II, LAMP1, Beclin-1, mTOR, ULK1, Rab7, Rab5 in BT-20 TNBC cells; assay: Western blot, autophagy markers
Method: The TNBC cells were seeded in a culture flask and incubated for 24 h. The cells were then incubated with different concentrations of the lead compounds and re-incubated for an additional 12 or 24 h. […] The bicinchoninic acid (BCA) was used to determine protein concentration in the cell extracts (G-BIOSCIENCES, St. Louis, MO, USA). […] The membrane was blocked using 5% milk in Tris-buffered Tween 20 saline for 30 minutes. The membrane was then incubated overnight with primary antibodies against Bak, Bax, Bcl-2, caspase9, caspase 3, caspase 7, PARP, cytochrome c, N-cadherin, E-cadherin, c-Myc, dishevelled segment polarity protein 3 (DVL3), dishevelled segment polarity protein 2 (DVL2), Vimentin, mitogen-activated protein kinase kinase (MAPKK also known as MEK1/2), β-catenin, low-density lipoprotein receptor-related protein 6 (LRP6), receptor-interacting protein kinase (RIP), phosphorylated RIP (p-RIP), mixed lineage kinase domain like pseudokinase(MLKL), Caspase 8, light chain 3 (LC3), lysosomal-associated membrane protein 1 (LAMP1), unc-51 like autophagy activating kinase 1 (ULK1), ras associated protein 7 (Rab7), ras associated protein 5 (Rab5), Beclin 1, mechanistic target of rapamycin (mTOR), tumor necrosis factor alpha (TNF-α), tumor necrosis factor receptor 1 (TNFR1), tumor necrosis factor receptor 2 (TNFR2), Fas-associated protein with death domain (FADD), Fas ligand (Fas), TNF-related apoptosis-inducing ligand (TRAIL), death receptor 5 (DR5), Tumor necrosis factor receptor type 1-associated DEATH domain (TRADD), receptor-interacting protein kinase 3 (RIP3), β-actin or GAPDH in 1:1000 dilution in 5% milk or 5% BSA at 4° C. Horseradish peroxidase-labeled (HRP) anti-rabbit or anti-mouse secondary antibodies (1:5,000 dilution) were added and incubated the next day for an additional 1 h. A ChemiDoc™ MP System imaging system from Bio-Rad (Hercules, CA, USA) was used for blots reading. Blots were used to obtain the protein bands, followed by quantification of the bands using image J software (NIH, Bethesda, MD, USA). All of the data were expressed as the ratio of β-actin or GAPDH.

COc1ccc(O)c(/C=N/Nc2ncnc3scc(-c4ccc(C)cc4)c23)c1 [TPH104]
IC50 [1]: 190 nM
proliferation of other types of cancer [2]: significantly inhibited
colony formation rate ([3]; 0.1, 1, 10 μM for 12 h): significantly inhibited
number and size of the colonies formed ([3]; 1 and 10 μM, all 3 TNBC cell lines): significantly decreased
expression levels of ULK1, Rab5, and Rab7 ([4]; 0.5, 1, 2, or 5 μM): significantly reduced
LC3B-I levels ([4]; 0.5, 1, 2, or 5, 12 h): significantly increased
LC3B-II ([4]; 0.5, 1, 2, or 5, 12 h): no significant increase
expression of Beclin 1 ([4]; 1, 2, and 5 μM for 12 h): significantly decreased
expression of mTOR ([4]; 1, 2, or 5 μM for 12 h): significantly increased
expression levels of LAMP1 ([4]; 12 h): no significant change
